Results on 20 molecules are retold here after patent publication US7417068B2, “EP4 receptor antagonists” (Asterand UK Limited, priority 2003, dated 2008).

SMILES strings stand for the structures.

One test concerns the target T1, human EP2 receptor (Homo sapiens, UniProt P43116).
T1 construct: expressed in transfected cells
Kind of test: Binding ability to human EP receptors ([3H]PGE2 displacement), EP2. The following applies: membranes from cells stably transfected with human EP2 receptor; 3 nM [3H]PGE2; Cheng-Prusoff from IC50; read-out: pKi EP2 (converted). Here is the method: (§1) Membranes were prepared from cells stably transfected with human EP receptor cDNA. In brief, cells were cultured to confluency, scraped from culture flasks, and centrifuged (800 g, 8 minutes, 4° C.). Cells were twice washed in ice cold homogenisation buffer containing 10 mMTris-HCl, 1 mM EDTA.2Na, 250 mM sucrose, 1 mM PMSF, 0.3 mM indomethacin, pH 7.4, homogenised and re-centrifuged as before. The supernatant was stored on ice and pellets re-homogenised and re-spun. Supernatants were pooled and centrifuged at 40000 g, 10 minutes, 4° C. Resultant membrane pellets were stored at −80° C. until use.
(§2) For assay, membranes expressing human EP4, EP3, EP2 or EP1 receptors were incubated in Millipore (MHVBN45) plates containing assay buffer, radiolabelled [^3H]PGE2 and 0.1 to 10 000 nM concentrations of compounds. Incubations were performed at suitable temperatures and for suitable times to allow equilibrium to be reached. Non-specific binding was determined in the presence of 10 uM PGE2. Bound and free radiolabel was separated by vacuum manifold filtration using appropriate wash buffers, and bound radiolabel was determined by scintillation counting. Constituents of each of the buffers are included in table 1 below.
(§3) The affinity or pKi of each compound for each receptor was calculated from the concentration causing 50% radioligand displacement (IC50) using the Cheng-Prusoff equation: […]

Another test deals with T2, human EP4 receptor (Homo sapiens, UniProt P35408).
T2 construct: expressed in transfected cells
Kind of test: Binding ability to human EP receptors ([3H]PGE2 displacement), EP4. As to conditions: membranes from cells stably transfected with human EP4 receptor; 1 nM [3H]PGE2; Cheng-Prusoff from IC50; read-out: pKi EP4 (converted). Here is the method:
as §1, §2, §3

The next test has as its target T3, human EP3 receptor (Homo sapiens, UniProt P43115).
T3 construct: expressed in transfected cells
T3 sequence (P43115 1-390): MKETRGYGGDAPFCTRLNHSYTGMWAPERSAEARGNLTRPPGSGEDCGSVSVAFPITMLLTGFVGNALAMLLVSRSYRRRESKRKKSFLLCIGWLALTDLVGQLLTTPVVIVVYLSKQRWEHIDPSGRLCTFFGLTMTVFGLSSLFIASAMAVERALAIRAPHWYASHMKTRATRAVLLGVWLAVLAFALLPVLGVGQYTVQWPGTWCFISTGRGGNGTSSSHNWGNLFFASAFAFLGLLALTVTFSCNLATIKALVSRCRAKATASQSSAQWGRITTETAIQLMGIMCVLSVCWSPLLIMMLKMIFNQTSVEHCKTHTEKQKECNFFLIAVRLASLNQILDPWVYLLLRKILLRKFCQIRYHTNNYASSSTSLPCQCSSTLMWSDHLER
The test is described as follows: Binding ability to human EP receptors ([3H]PGE2 displacement), EP3. As to conditions: membranes from cells stably transfected with human EP3 receptor; 2.5 nM [3H]PGE2; Cheng-Prusoff from IC50; read-out: pKi EP3 (converted). As to the method: as §1, §2, §3

T2 sequence (P35408 whole entry): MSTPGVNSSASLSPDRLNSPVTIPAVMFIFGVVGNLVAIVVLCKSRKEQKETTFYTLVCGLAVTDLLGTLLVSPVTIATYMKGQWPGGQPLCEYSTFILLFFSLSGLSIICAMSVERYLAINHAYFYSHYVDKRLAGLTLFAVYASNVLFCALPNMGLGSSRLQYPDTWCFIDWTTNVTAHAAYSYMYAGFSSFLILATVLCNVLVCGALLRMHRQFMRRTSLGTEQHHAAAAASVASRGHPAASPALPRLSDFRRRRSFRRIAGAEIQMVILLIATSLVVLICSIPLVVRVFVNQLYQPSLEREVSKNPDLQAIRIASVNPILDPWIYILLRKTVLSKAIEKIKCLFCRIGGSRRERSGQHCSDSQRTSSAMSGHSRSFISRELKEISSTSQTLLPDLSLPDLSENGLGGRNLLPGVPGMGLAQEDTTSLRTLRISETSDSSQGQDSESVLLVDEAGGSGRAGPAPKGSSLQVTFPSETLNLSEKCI
T1 sequence (P43116 whole entry): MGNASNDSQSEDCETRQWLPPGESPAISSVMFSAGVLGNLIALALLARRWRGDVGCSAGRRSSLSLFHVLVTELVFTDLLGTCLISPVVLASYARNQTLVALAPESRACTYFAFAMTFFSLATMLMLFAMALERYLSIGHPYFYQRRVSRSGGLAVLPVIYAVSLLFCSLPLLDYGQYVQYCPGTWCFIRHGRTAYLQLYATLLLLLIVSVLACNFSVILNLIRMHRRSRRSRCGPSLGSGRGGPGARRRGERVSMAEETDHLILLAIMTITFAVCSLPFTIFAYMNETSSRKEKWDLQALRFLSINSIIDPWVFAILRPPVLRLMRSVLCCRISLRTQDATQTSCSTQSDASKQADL

Turning to `COc1ccc(-c2cc(C(=O)Nc3ccc(CC(=O)O)cc3)c(C(F)(F)F)o2)cc1` [Compound 4, (4-{[5-(4-Methoxy-phenyl)-2-trifluoromethyl-furan-3-carbonyl]-amino}-phenyl)-acetic acid], the Ki at human EP2 receptor was above 10 µM; at human EP4 receptor it was below 10 µM; on human EP3 receptor, above 10 µM.

Consider `COc1ccc(-c2cc(C(=O)Nc3ccc(CC(=O)O)cc3)c(C)o2)cc1` [Compound 6, (4-{[5-(4-Methoxy-phenyl)-2-methyl-furan-3-carbonyl]-amino}-phenyl)-acetic acid], for which the Ki was above 10 µM on human EP2 receptor, below 1 µM at human EP4 receptor and above 10 µM at human EP3 receptor.

For the molecule `O=C(O)Cc1ccc(NC(=O)c2coc(-c3ccccc3)c2)cc1` [Compound 10, {4-[(5-Phenyl-furan-3-carbonyl)-amino]-phenyl}-acetic acid], the values for the Ki at human EP2 receptor, on human EP4 receptor and on human EP3 receptor were above 3.16 µM, below 1 µM and above 10 µM, respectively.

As to `O=C(O)Cc1ccc(NC(=O)c2coc(-c3ccc(OC(F)F)cc3)c2)cc1` [Compound 13, (4-{[5-(4-Difluoromethoxy-phenyl)-furan-3-carbonyl]-amino}-phenyl)-acetic acid], the values for the Ki at human EP2 receptor, at human EP4 receptor and on human EP3 receptor were above 10 µM, below 1 µM and above 10 µM, respectively.

Take `Cc1oc(-c2ccc(OC(F)F)cc2)cc1C(=O)Nc1ccc(CC(=O)O)cc1` [Compound 18, (4-{[5-(4-Difluoromethoxy-phenyl)-2-methyl-furan-3-carbonyl]-amino}-phenyl)-acetic acid]: the Ki at human EP2 receptor was above 3.16 µM; on human EP4 receptor it was below 1 µM; on human EP3 receptor, above 10 µM.

`Cc1cc(C(=O)NCc2ccc(C(=O)O)cc2)c(-c2ccccc2)o1` [Compound 20, 4-{[(5-Methyl-2-phenyl-furan-3-carbonyl)-amino]-methyl}-benzoic acid]: the figures for the Ki on human EP2 receptor, at human EP4 receptor and on human EP3 receptor were above 10 µM, below 10 µM and above 10 µM, respectively.

In the case of `Cc1oc(-c2ccccc2)cc1C(=O)Nc1ccc(CC(=O)NS(=O)(=O)c2ccccc2)cc1` [Compound 21, 2-Methyl-5-phenyl-furan-3-carboxylic acid [4-(2-benzenesulfonylamino-2-oxo-ethyl)-phenyl]-amide], the Ki on human EP2 receptor was above 1 µM; at human EP4 receptor, below 0.1 µM; at human EP3 receptor, above 10 µM.

Take `COc1ccc(-c2cc(C(=O)Nc3ccc(CC(=O)NS(=O)(=O)c4ccccc4)cc3)c(C(F)(F)F)o2)cc1` [Compound 22, 5-(4-Methoxy-phenyl)-2-trifluoromethyl-furan-3-carboxylic acid [4-(2-benzenesulfonylamino-2-oxo-ethyl)-phenyl]-amide]: the Ki at human EP2 receptor was above 1 µM; on human EP4 receptor, below 1 µM; at human EP3 receptor, above 10 µM.

Consider `COc1ccc(-c2cc(C(=O)Nc3ccc(CC(=O)NS(=O)(=O)c4ccccc4)cc3)c(C)o2)cc1` [Compound 23, 5-(4-Methoxy-phenyl)-2-methyl-furan-3-carboxylic acid [4-(2-benzenesulfonylamino-2-oxo-ethyl)-phenyl]-amide], for which the Ki was above 1 µM at human EP2 receptor, below 0.1 µM at human EP4 receptor and above 10 µM at human EP3 receptor.

`Cc1ccccc1S(=O)(=O)NC(=O)Cc1ccc(NC(=O)c2coc(-c3ccccc3)c2)cc1` [Compound 24, 5-Phenyl-furan-3-carboxylic acid {4-[2-oxo-2-(toluene-2-sulfonylamino)-ethyl]-phenyl}-amide]: the Ki was above 0.1 µM at human EP2 receptor, below 1 µM at human EP4 receptor and above 10 µM on human EP3 receptor.

In the case of `Cc1oc(-c2ccc(OC(F)F)cc2)cc1C(=O)Nc1ccc(CC(=O)NS(=O)(=O)c2ccccc2)cc1` [Compound 25, 5-(4-Difluoromethoxy-phenyl)-2-methyl-furan-3-carboxylic acid [4-(2-benzenesulfonylamino-2-oxo-ethyl)-phenyl]-amide], the values for the Ki at human EP2 receptor, on human EP4 receptor and on human EP3 receptor were above 1 µM, below 0.1 µM and above 10 µM, respectively.

As for `Cc1ccccc1S(=O)(=O)NC(=O)Cc1ccc(NC(=O)c2cc(-c3ccc(OC(F)F)cc3)oc2C)cc1` [Compound 26, 5-(4-Difluoromethoxy-phenyl)-2-methyl-furan-3-carboxylic acid {4-[2-oxo-2-(toluene-2-sulfonylamino)-ethyl]-phenyl}-amide], the Ki at human EP2 receptor is above 0.316 µM; on human EP4 receptor it was below 0.1 µM; on human EP3 receptor, above 10 µM.

Regarding `CCCS(=O)(=O)NC(=O)Cc1ccc(NC(=O)c2cc(-c3ccc(OC(F)F)cc3)oc2C)cc1` [Compound 27, 5-(4-Difluoromethoxy-phenyl)-2-methyl-furan-3-carboxylic acid {4-[2-oxo-2-(propane-1-sulfonylamino)-ethyl]-phenyl}-amide], the values for the Ki at human EP2 receptor, at human EP4 receptor and at human EP3 receptor were above 10 µM, below 1 µM and above 10 µM, respectively.

Take `Cc1noc(C)c1S(=O)(=O)NC(=O)Cc1ccc(NC(=O)c2cc(-c3ccc(OC(F)F)cc3)oc2C)cc1` [Compound 28, 5-(4-Difluoromethoxy-phenyl)-2-methyl-furan-3-carboxylic acid {4-[2-(3,5-dimethyl-isoxazole-4-sulfonylamino)-2-oxo-ethyl]-phenyl}-amide]: the Ki on human EP2 receptor is above 10 µM; at human EP4 receptor, below 1 µM; at human EP3 receptor it was above 10 µM.

With `Cc1oc(-c2ccc(OC(F)F)cc2)cc1C(=O)Nc1ccc(CC(=O)NS(=O)(=O)c2cccs2)cc1` [Compound 29, 5-(4-Difluoromethoxy-phenyl)-2-methyl-furan-3-carboxylic acid {4-[2-oxo-2-(thiophene-2-sulfonylamino)-ethyl]-phenyl}-amide], the Ki at human EP2 receptor is above 3.16 µM; on human EP4 receptor it was below 0.1 µM; at human EP3 receptor, above 10 µM.

Regarding `Cc1ccc(S(=O)(=O)NC(=O)Cc2ccc(NC(=O)c3cc(-c4ccc(OC(F)F)cc4)oc3C)cc2)nc1` [Compound 30, 5-(4-Difluoromethoxy-phenyl)-2-methyl-furan-3-carboxylic acid {4-[2-(5-methyl-pyridine-2-sulfonylamino)-2-oxo-ethyl]-phenyl}-amide], the Ki at human EP2 receptor is above 1 µM; on human EP4 receptor it was below 0.1 µM; at human EP3 receptor it was above 10 µM.

For the molecule `Cc1oc(-c2ccc(OC(F)F)cc2)cc1C(=O)Nc1ccc(CC(=O)NS(=O)(=O)Cc2ccccc2)cc1` [Compound 31, 5-(4-Difluoromethoxy-phenyl)-2-methyl-furan-3-carboxylic acid [4-(2-oxo-2-phenylmethanesulfonylamino-ethyl)-phenyl]-amide], the figures for the Ki on human EP2 receptor, on human EP4 receptor and at human EP3 receptor were above 1 µM, below 0.1 µM and above 10 µM, respectively.

As for `Cc1oc(-c2ccc(OC(F)F)cc2)cc1C(=O)Nc1ccc(CC(=O)NS(=O)(=O)c2ccccc2C(F)(F)F)cc1` [Compound 32, 5-(4-Difluoromethoxy-phenyl)-2-methyl-furan-3-carboxylic acid {4-[2-oxo-2-(2-trifluoromethyl-benzenesulfonylamino)-ethyl]-phenyl}-amide], the Ki at human EP2 receptor is above 3.16 µM; on human EP4 receptor, below 0.1 µM; on human EP3 receptor it was above 3.16 µM.

As for `Cc1oc(-c2ccc(OC(F)F)cc2)cc1C(=O)Nc1ccc(CC(=O)NS(=O)(=O)c2ccc(O)cc2)cc1` [Compound 35, 5-(4-Difluoromethoxy-phenyl)-2-methyl-furan-3-carboxylic acid {4-[2-(4-hydroxy-benzenesulfonylamino)-2-oxo-ethyl]-phenyl}-amide], the Ki is above 3.16 µM at human EP2 receptor, below 0.1 µM on human EP4 receptor and above 10 µM on human EP3 receptor.

Consider `Cc1oc(-c2ccc(OC(F)F)cc2)cc1C(=O)Nc1ccc(CC(=O)NS(=O)(=O)c2ccccc2F)cc1` [Compound 36, 5-(4-Difluoromethoxy-phenyl)-2-methyl-furan-3-carboxylic acid {4-[2-(2-fluoro-benzenesulfonylamino)-2-oxo-ethyl]-phenyl}-amide], for which the Ki on human EP2 receptor is above 1 µM; on human EP4 receptor, below 0.1 µM; on human EP3 receptor it was above 10 µM.
